Laboratory results taken from patent publication US5578596A, “2-alkoxy-5,6,7,8-tetrahydroquinoxaline derivatives, and production method and use thereof” (Asahi Kasei Kogyo Kabushiki Kaisha, priority 1992, dated 1996).
pKi: −log10 of the molar value.

Assays:
[1] = biological target: T1, serotonin 1A (5HT1A) receptor (Rattus norvegicus, UniProt P19327); assay: Affinity for serotonin 1A (5HT1A) receptor: inhibition of 3H-8-OH-DPAT binding to rat hippocampal membrane fraction; settings: test compound as hydrochloride
T1 construct: The resultant precipitate was used as a rat hippocampal membrane fraction in the following procedures; from tissue; host or cells: hippocampal membrane fraction of male SD rat (7 weeks old; animals from Charles River)
T1 sequence (P19327 1-422): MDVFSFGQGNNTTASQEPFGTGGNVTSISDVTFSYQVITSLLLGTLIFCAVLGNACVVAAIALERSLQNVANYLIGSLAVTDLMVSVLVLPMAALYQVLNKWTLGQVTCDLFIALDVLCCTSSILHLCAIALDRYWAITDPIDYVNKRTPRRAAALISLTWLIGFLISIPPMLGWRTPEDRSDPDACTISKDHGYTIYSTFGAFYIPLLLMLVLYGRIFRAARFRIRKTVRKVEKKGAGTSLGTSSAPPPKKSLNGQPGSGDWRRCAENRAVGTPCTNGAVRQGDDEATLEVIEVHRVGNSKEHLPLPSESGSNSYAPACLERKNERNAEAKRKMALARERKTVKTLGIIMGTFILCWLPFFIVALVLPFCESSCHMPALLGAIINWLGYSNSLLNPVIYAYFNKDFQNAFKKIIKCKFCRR
Procedure: 1. Affinity for serotonin 1A (5HT1A) receptor
(A) Preparation of rat hippocampal membrane fraction
A male SD strain rat (7-week old; Charles River) was decapitated, and brain was taken out therefrom quickly. 50 mM Tris-HCl buffer (pH 7.4) was added to the brain under ice cooling to obtain a suspension. The resultant suspension was homogenized, and then subjected to centrifugation at 48000 g for 15 minutes, to thereby obtain a precipitate. The precipitate was resuspended in the same Tris-HCl buffer as used above. The resultant suspension was incubated at 30° C. for 20 minutes to decompose endogenous serotonin of the rat hippocampal membrane, followed by centrifugation at 48000 g for 15 minutes to thereby obtain a precipitate. The resultant precipitate was used as a rat hippocampal membrane fraction in the following procedures.
(B) Method for the evaluation of the binding ability of ^3 H-8-hydroxy-dipropylaminotetralin (^3 H-8-OH-DPAT) to serotonin 1A receptor
The rat hippocampal membrane fraction prepared in step (A) above (about 100 to 200 μg in terms of proteins) was reacted with 0.5 nM (final concentration) ^3 H-8-OH-DPAT (which is commercially available from DuPont-NEN Research Products) and 10 μM (final concentration) pargyline (which is commercially available from Sigma Chemical Company) at 30° C. for 30 minutes to effect a reaction. The resultant reaction mixture was subjected to suction filtration using a Whatman GF/C filter, to thereby terminate the reaction. The radio-activity of ^3 H-8-OH-DPAT adsorbed on the filter was determined using a liquid scintillation counter. The obtained value is regarded as a total amount (TB) of specifically binding ^3 H-8-OH-DPAT and non-specifically binding ^3 H-8-OH-DPAT.
On the other hand, substantially the same procedure as mentioned above was repeated, except that 10 μM (final concentration) serotonin was added to the ^3 H-8-OH-DPAT and pargyline. The radioactivity of ^3 H-8-OH-DPAT adsorbed on the filter was determined in the same manner as mentioned above. The obtained value is regarded as the amount (NB) of non-specifically binding ^3 H-8-OH-DPAT.
Further, substantially the same procedure as mentioned above was repeated, except that, instead of serotonin, a test compound was used in a predetermined concentration. The radioactivity of ^3 H-8-OH-DPAT adsorbed on the filter was determined in the same manner as mentioned above. The obtained value is regarded as the amount (DTB) of binding ^3 H-8-OH-DPAT.
(C) Calculation of Ki value
The inhibition ratio of the test compound (at a certain concentration) against the binding of 3H-8-OH-DPAT (the inhibition ratio is hereinafter referred to simply as "binding inhibition ratio") was calculated according to the following formula:
Binding inhibition ratio (%)=100-(DTB-NB).div.(TB-NB)×100
With respect to each of the test compounds, the binding inhibition ratios at various concentrations (from a higher concentration to a lower concentration) were determined. The binding inhibition ratios were plotted, taking the logarithmic value of the concentration of test compound as the abscissa value, and the binding inhibition ratio as the ordinate value. Then, a curve was drawn by non-linear least square method.
The Ki value was determined according to the following formula:
[L] is the concentration (0.2 nM) of a radioactive ligand (^3 H-8-OH-DPAT) used in the test;

[2] = tested on: Suncus murinus (motion sickness emesis); assay: Activities against motion sickness: acceleration-stimulus induced emesis in suncus; type: in vivo; settings: 30 min before acceleration-stimulus (4 cm, 1 Hz), observed 10 min, hydrochloride, 4 suncus
Description: The activities of individual compounds against motion sickness were examined using Suncus murinus. Suncus murinus is a small animal belonging to the Soricidae family. It has been known that suncus is likely to suffer from motion sickness and is susceptible to occurrence of emesis [see "Seitai-no-kagaku (Science of living body)", 41, 538 (1990)]. Suncus is likely to show symptoms like the symptoms of human motion sickness under the stimulus of simple acceleration, finally leading to the occurrence of emesis. It has been recognized that motion sickness is caused by the occurrence of disorder in information, such as vision, equilibrium sense and the like, or by a stimulus which has never been memorized. Further, it has been recognized that the disorder in the inner earvestibular nucleus pathway and the high-order function of brain take part in the occurrence of motion sickness. Therefore, medicines capable of suppressing the occurrence of emesis of suncus would be useful for preventing and treating motion sickness, space sickness, emesis, dizziness and the like.
In this test, test compounds were individually administered intraperitoneally to suncus.
The time for occurrence of emesis was measured with respect to each of the test compounds, and the results are shown in Table 3.

Compound | pKi [1] | Time for occurrence of emesis ([2]; 3 mg/kg intraperitoneal) | Time for occurrence of emesis ([2]; 1 mg/kg intraperitoneal)
c1cnc(N2CCN(CCCCOc3cnc4c(n3)CCCC4)CC2)nc1 [Compound 301, 2-[4-{4-(2-Pyrimidinyl)-1-piperazinyl}butoxy]-5,6,7,8-tetrahydroquinoxaline] | 8.22 | Emesis did not occur | –
Cc1nc2c(nc1OCCCCN1CCN(c3ccccn3)CC1)CCCC2 [Compound 409] | 7.80 | – | –
Cc1nc2c(nc1OCCCCN1CCN(c3ncccn3)CC1)CCCC2 [Compound 410] | 7.62 | – | –
Cc1cc(C)nc(N2CCN(CCCCOc3cnc4c(n3)CCCC4)CC2)n1 [Compound 481, 2-[4-{4-(4,6-Dimethyl-2-pyrimidinyl)-1-piperazinyl}butoxy]-5,6,7,8-tetrahydroquinoxaline] | 8.28 | – | –
Clc1cccc(N2CCN(CCCCOc3cnc4c(n3)CCCC4)CC2)n1 [Compound 500, 2-[4-{4-(6-Chloro-2-pyridyl)-1-piperazinyl}butoxy]-5,6,7,8-tetrahydroquinoxaline] | 8.68 | – | Emesis did not occur
Cc1cccc(N2CCN(CCCCOc3cnc4c(n3)CCCC4)CC2)n1 [Compound 501, 2-[4-{4-(6-Methyl-2-pyridyl)-1-piperazinyl}butoxy]-5,6,7,8-tetrahydroquinoxaline] | 9.22 | – | Emesis did not occur
Clc1cccnc1N1CCN(CCCCOc2cnc3c(n2)CCCC3)CC1 [Compound 502, 2-[4-{4-(3-Chloro-2-pyridyl)-1-piperazinyl}butoxy]-5,6,7,8-tetrahydroquinoxaline] | 7.89 | – | –
Cc1ccnc(N2CCN(CCCCOc3cnc4c(n3)CCCC4)CC2)n1 [Compound 504, 2-[4-{4-(4-Methyl-2-pyrimidinyl)-1-piperazinyl}butoxy]-5,6,7,8-tetrahydroquinoxaline] | 8.41 | – | Emesis did not occur
c1ccc(N2CCN(CCCCCOc3cnc4c(n3)CCCC4)CC2)nc1 [Compound 511, 2-[5-{4-(2-Pyridyl)-1-piperazinyl}pentoxy]-5,6,7,8-tetrahydroquinoxaline] | 8.08 | – | –
c1cnc(N2CCN(CCCCCOc3cnc4c(n3)CCCC4)CC2)nc1 [Compound 512, 2-[5-{4-(2-pyrimidinyl)-1-piperazinyl}pentoxy]-5,6,7,8-tetrahydroquinoxaline] | 7.64 | – | –
N#Cc1cccnc1N1CCN(CCCCOc2cnc3c(n2)CCCC3)CC1 [Compound 514, 2-[4-{4-(3-Cyano-2-pyridyl)-1-piperazinyl}butoxy]-5,6,7,8-tetrahydroquinoxaline] | 8.32 | – | –
CCOc1cccc(N2CCN(CCCCOc3cnc4c(n3)CCCC4)CC2)n1 [Compound 524, 2-[4-{4-(6-Ethoxy-2-pyridyl)-1-piperazinyl}butoxy]-5,6,7,8-tetrahydroquinoxaline] | 8.72 | – | Emesis did not occur
c1ccc(N2CCN(CCCOc3cnc4c(n3)CCCC4)CC2)nc1 [Compound 537, 2-[3-{4-(2-Pyridyl)-1-piperazinyl}propoxy]-5,6,7,8-tetrahydroquinoxaline] | 7.85 | – | –
c1cnc(N2CCN(CCCOc3cnc4c(n3)CCCC4)CC2)nc1 [Compound 538, 2-[3-{4-(2-pyrimidinyl)-1-piperazinyl}propoxyl]-5,6,7,8-tetrahydroquinoxaline] | 7.60 | – | –
COc1cccc(N2CCN(CCCCOc3cnc4c(n3)CCCC4)CC2)n1 [Compound 539, 2-[4-{4-(6-Methoxy-2-pyridyl)-1-piperazinyl}butoxy]-5,6,7,8-tetrahydroquinoxaline] | 8.89 | – | Emesis did not occur
COc1cc(OC)nc(N2CCN(CCCCOc3cnc4c(n3)CCCC4)CC2)n1 [Compound 549, 2-[4-{4-(4,6-Dimethoxy-2-pyrimidinyl)-1-piperazinyl}butoxy]-5,6,7,8-tetrahydroquinoxaline] | 8.18 | – | –
COc1cccnc1N1CCN(CCCCOc2cnc3c(n2)CCCC3)CC1 [Compound 557, 2-[4-{4-(3-Methoxy-2-pyridyl)-1-piperazinyl}butoxy]-5,6,7,8-tetrahydroquinoxaline] | 8.82 | – | –
Cc1cc(C)c(C#N)c(N2CCN(CCCCOc3cnc4c(n3)CCCC4)CC2)n1 [Compound 561, 2-[4-{4-(3-Cyano-4-6-dimethyl-2-pyridyl)-1-piperazinyl}butoxy]-5,6,7,8-tetrahydroquinoxaline] | 7.80 | – | –
COc1cc(C)nc(N2CCN(CCCCOc3cnc4c(n3)CCCC4)CC2)n1 [Compound 562, 2-[4-{4-(4-Methoxy-6-methyl-2-pyrimidinyl)-1-piperazinyl}butoxy]-5,6,7,8-tetrahydroquinoxaline] | 7.96 | Emesis did not occur | –
Cc1cc(C)nc(N2CCN(CCCCOc3cnc4c(n3)CCCC4)CC2)c1 [Compound 569, 2-[4-{4-(4,6-Dimethyl-2-pyridyl)-1-piperazinyl}butoxy]-5,6,7,8-tetrahydroquinoxaline] | 8.17 | – | –
Cc1ccc(C)c(N2CCN(CCCCOc3cnc4c(n3)CCCC4)CC2)n1 [Compound 598, 2-[4-{4-(3,6-Dimethyl-2-pyridyl)-1-piperazinyl}butoxy]-5,6,7,8-tetrahydroquinoxaline] | 7.60 | – | –
CCCOc1cccc(N2CCN(CCCCOc3cnc4c(n3)CCCC4)CC2)n1 [Compound 629, 2-[4-{4-(6-Propoxy-2-pyridyl)-1-piperazinyl}butoxy]-5,6,7,8-tetrahydroquinoxaline] | 8.74 | Emesis did not occur | –
CC(C)Oc1cccc(N2CCN(CCCCOc3cnc4c(n3)CCCC4)CC2)n1 [Compound 630, 2-[4-{4-(6-Isopropoxy-2-pyridyl)-1-piperazinyl}butoxy]-5,6,7,8-tetrahydroquinoxaline] | 8.52 | Emesis did not occur | –
FC(F)(F)c1ccnc(N2CCN(CCCCOc3cnc4c(n3)CCCC4)CC2)c1 [Compound 639, 2-[4-{4-(4-Trifluoromethyl-2-pyridyl)-1-piperazinyl}butoxy]-5,6,7,8-tetrahydroquinoxaline] | 7.96 | – | –
FC(F)(F)c1cccc(N2CCN(CCCCOc3cnc4c(n3)CCCC4)CC2)n1 [Compound 640, 2-[4-{4-(6-Trifluoromethyl-2-pyridyl)-1-piperazinyl}butoxy]-5,6,7,8-tetrahydroquinoxaline] | 8.28 | – | –
